Calls of active or inactive are those of the source.
Columns and labels:
[1] = Luminescence Cell-Based Dose Confirmation HTS to Identify Inhibitors of Platelet Dense Granule Release. [Related pubchem assays: 1663 (Primary HTS), 1678 (Summary of Project)]; assay type: functional
[2] = biological target: Luciferin 4-monooxygenase (Photinus pyralis, UniProt P08659); assay: inhibition of purified Photinus pyralis luciferase – biochemical, luminescence, dose response (AID 1891)
[3] = biological target: T1, RNA-binding protein pos-1 (Caenorhabditis elegans, UniProt G5EF15); assay: disruptors of C. elegans POS-1 RNA interaction – biochemical, fluorescence polarization, dose response (AID 1964);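 further: purified POS-1 fused to maltose binding protein made in E. coli; potency of compounds blocking POS-1 binding to fluorescent RNA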
T1 sequence (G5EF15 whole entry): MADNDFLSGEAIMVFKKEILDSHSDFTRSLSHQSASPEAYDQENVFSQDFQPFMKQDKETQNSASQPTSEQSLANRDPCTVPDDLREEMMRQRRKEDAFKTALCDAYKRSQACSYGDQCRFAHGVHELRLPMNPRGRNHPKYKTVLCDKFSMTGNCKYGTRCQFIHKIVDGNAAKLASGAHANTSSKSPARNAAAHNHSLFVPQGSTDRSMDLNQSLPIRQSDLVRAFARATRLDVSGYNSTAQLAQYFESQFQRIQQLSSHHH

cells [4] = assay type: functional, cell-based
cells [5] = assay type: functional, cell-based; remark: listed apart in the source
[6] = viability of PTEN-deleted HCT116 cells – cell-based, HCT116 PTEN knockout, dose response (AID 1047); assay type: functional;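 further: HCT116 colon tumor cells with PTEN knocked out; cells exposed to compound for 60 hours before readout; potency for loss of cell viability measured by luminescence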
[7] = viability of HCT116 lacking mutant beta-catenin – cell-based, human colon tumor, dose response (AID 1045); assay type: functional;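 further: HCT116 colon tumor cells with beta catenin knocked out; cells exposed to compound for 60 hours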
Protein skinhead-1 = biological target: T2, Protein skinhead-1 (Caenorhabditis elegans, UniProt P34707); assay type: functional
T2 sequence (P34707 whole entry): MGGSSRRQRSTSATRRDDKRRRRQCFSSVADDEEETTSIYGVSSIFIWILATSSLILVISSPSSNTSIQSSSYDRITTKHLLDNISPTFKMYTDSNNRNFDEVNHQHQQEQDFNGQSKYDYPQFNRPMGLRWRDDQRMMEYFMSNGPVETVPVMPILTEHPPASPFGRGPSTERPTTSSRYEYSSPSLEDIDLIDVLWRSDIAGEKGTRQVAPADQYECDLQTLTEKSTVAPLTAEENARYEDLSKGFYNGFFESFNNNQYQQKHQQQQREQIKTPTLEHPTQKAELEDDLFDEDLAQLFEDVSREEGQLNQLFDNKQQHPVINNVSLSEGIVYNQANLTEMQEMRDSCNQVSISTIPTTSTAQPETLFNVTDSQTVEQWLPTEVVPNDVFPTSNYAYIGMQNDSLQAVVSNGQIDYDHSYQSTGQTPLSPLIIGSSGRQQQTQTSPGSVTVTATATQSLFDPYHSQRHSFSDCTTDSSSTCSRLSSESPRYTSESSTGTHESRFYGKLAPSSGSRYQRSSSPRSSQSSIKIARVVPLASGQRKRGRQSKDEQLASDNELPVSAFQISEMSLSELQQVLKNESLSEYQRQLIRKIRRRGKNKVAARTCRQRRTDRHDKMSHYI

[8] = biological target: T3, Calpain-2 catalytic subunit (Sus scrofa, UniProt P43367); assay: m-calpain protease blockers, concentration series – biochemical, fluorogenic peptide substrate, dose response (AID 1420); assay type: functional
T3 sequence (P43367 whole entry): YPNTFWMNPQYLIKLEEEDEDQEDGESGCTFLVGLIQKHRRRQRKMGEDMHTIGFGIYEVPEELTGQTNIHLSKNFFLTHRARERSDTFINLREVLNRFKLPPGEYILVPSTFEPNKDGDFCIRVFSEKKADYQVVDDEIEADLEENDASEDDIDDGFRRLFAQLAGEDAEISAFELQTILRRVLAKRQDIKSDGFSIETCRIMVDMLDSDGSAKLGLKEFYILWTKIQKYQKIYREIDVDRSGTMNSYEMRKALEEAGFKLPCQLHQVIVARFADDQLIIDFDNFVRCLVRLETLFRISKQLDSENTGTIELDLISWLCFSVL

Cytochrome P450 2C9 = Cytochrome P450 2C9 (Homo sapiens, UniProt P11712)
[9] = NIH3T3 cell viability loss – ATP luminescence, mouse fibroblasts, counter-screen, dose response (AID 2010); assay type: functional, cell-based;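 further: cells exposed to compound for about 90 hours before reading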
[10] = Trypanosoma cruzi growth suppression in host cells – NIH3T3 host cells, beta-gal luminescence, confirmation (AID 2044); assay type: functional, cell-based;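 further: intracellular parasites grown in NIH/3T3 mouse fibroblasts as host cells; luminescent beta-galactosidase reporter signal from transgenic T. cruzi replicating inside host cells; inhibitors lower the luminescence signal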
[11] = biological target: T4, Heat shock factor protein 1 (Mus musculus, UniProt P38532); assay: decrease of HSF1-responsive luciferase luminescence – cell-based, NIH3T3, dose retest, confirmation (AID 2382); assay type: functional;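 further: NIH3T3 fibroblasts with HSF1-driven luciferase reporter stressed by proteasome inhibitor MG132; luminescence from HSF1-driven luciferase expression after 8 hours of MG132 stress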
T4 sequence (P38532 whole entry): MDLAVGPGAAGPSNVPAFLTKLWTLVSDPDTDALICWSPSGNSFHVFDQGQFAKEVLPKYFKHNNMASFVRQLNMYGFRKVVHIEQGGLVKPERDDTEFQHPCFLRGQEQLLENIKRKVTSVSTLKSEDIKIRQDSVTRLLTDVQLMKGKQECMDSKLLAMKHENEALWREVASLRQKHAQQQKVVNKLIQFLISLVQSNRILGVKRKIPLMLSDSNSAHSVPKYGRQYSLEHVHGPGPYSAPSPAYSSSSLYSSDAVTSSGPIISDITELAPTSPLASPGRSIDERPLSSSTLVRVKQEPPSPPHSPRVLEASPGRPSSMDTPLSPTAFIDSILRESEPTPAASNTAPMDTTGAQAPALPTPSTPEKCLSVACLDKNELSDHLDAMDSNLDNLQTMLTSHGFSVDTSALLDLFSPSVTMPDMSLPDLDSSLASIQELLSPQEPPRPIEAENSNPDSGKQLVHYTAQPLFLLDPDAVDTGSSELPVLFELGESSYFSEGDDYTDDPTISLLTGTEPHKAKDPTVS

Cytochrome P450 3A4 = Cytochrome P450 3A4 (Homo sapiens, UniProt P08684);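 further: CYP3A4 tested as one member of a cytochrome P450 panel screen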
Cytochrome P450 2C19 = Cytochrome P450 2C19 (Homo sapiens, UniProt P33261); assay: Cytochrome panel assay with activity outcomes. Panel member name: p450-cyp2c19 Compounds with AC50 equal or less than 10 uM are considered active; assay type: functional; settings: read-out: AC50
Sequence of Cytochrome P450 2C19 (P33261 whole entry): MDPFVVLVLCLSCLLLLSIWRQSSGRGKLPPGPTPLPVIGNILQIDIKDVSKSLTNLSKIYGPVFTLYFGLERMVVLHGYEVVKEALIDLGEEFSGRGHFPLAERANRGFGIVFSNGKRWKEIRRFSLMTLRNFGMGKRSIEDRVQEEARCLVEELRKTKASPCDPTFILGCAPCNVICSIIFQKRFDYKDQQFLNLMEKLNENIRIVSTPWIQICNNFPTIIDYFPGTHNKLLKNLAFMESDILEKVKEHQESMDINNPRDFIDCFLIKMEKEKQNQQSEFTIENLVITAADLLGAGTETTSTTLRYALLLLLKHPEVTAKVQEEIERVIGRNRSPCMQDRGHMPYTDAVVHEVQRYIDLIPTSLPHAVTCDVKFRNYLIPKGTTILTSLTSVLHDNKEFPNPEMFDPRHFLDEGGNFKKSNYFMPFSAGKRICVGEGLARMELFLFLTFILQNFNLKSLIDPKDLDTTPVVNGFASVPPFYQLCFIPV

Sequence of Cytochrome P450 2C9 (P11712 whole entry): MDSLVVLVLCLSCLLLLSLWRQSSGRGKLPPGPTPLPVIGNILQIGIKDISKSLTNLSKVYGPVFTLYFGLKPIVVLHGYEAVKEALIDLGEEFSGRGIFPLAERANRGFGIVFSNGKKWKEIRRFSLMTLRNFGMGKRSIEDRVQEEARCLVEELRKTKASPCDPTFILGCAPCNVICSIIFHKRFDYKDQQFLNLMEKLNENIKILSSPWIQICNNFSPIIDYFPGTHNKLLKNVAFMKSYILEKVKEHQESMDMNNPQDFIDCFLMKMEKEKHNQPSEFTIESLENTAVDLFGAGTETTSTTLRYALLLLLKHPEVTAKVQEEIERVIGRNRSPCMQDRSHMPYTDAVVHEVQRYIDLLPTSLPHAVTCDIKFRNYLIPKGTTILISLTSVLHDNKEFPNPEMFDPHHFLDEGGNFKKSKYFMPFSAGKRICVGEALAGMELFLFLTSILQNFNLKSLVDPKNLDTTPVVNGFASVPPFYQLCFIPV
Sequence of Luciferin 4-monooxygenase (P08659 whole entry, the tested form may be a part): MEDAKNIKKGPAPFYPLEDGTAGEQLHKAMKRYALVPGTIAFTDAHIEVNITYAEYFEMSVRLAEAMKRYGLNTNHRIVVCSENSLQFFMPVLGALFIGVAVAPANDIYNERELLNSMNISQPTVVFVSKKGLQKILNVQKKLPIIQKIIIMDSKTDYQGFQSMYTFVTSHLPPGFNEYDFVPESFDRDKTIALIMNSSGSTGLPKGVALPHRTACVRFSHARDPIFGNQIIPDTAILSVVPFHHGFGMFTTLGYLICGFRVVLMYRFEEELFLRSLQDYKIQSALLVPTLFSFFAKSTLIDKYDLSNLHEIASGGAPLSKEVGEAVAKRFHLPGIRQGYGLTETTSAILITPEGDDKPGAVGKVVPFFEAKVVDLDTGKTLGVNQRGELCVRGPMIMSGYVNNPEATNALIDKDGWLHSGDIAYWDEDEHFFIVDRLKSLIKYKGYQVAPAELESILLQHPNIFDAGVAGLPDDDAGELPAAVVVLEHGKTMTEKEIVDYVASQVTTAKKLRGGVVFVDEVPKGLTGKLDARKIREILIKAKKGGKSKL
Sequence of Cytochrome P450 3A4 (P08684 whole entry): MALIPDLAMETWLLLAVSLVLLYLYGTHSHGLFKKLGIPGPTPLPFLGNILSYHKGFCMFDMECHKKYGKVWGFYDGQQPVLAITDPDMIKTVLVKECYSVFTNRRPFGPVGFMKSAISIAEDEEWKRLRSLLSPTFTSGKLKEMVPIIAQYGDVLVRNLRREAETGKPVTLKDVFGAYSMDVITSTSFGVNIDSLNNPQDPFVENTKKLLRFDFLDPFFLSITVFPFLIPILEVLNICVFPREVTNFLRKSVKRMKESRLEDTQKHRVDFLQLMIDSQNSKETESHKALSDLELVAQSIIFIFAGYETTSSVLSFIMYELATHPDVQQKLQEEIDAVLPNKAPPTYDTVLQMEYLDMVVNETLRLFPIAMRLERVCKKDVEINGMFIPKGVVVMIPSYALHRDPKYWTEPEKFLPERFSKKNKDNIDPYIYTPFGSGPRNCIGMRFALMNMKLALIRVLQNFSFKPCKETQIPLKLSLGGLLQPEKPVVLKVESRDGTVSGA

Question: Which EC50 [1] does the source give for `CCCCOc1cccc(-c2cc(C(=O)NN=C(S)NCC)c3ccccc3n2)c1` here?
Answer: 111 µM (active)

Question: Which EC50 [2] does the source give for `CCCCOc1cccc(-c2cc(C(=O)NNC(=S)NCC)c3ccccc3n2)c1` here?
Answer: 2.3 µM (active)

Question: Which EC50 [3] does the source give for `O=C(O)COc1ccc(/C=C/c2n[nH]c(-c3ccccc3O)n2)cc1` here?
Answer: > 300 µM (not active)

Question: Which EC50 (cells [4]) does the source give for `COc1ccc(CC(=O)Nc2cccc(-c3nnc(-c4ccccc4)o3)c2)cc1OC` here?
Answer: > 350 µM (not active)

Question: And the EC50 (cells [5])?
Answer: > 350 µM (not active)

Question: What about the EC50 [6] of the same compound?
Answer: 25.4 µM (active)

Question: What about the EC50 [7] of the same compound?
Answer: 69.6 µM (active)

Question: Which results are given for `CCC(=O)N1CCN(c2nc3ccc(Br)cc3s2)CC1`?
Answer: IC50 (Protein skinhead-1): 58.6 µM (inactive); EC50 (cells [4]): 144 µM (active); EC50 (cells [5]): > 350 µM (not active)

Question: For `COc1ccccc1CN(C)CC(=O)Nc1ccc(Cl)cc1F`, which IC50 [8] is on record?
Answer: > 50 µM (not active)

Question: What does the source list for `CCn1ccnc1C(O)c1ccccc1OC` (stereo not drawn)?
Answer: EC50 (cells [4]): > 350 µM (not active); EC50 (cells [5]): > 350 µM (not active)

Question: Which results are given for `Cc1ccc(C(=O)CCC(=O)Nc2cccc(C(F)(F)F)c2)cc1`?
Answer: EC50 [2]: > 112 µM (not active); EC50 [1]: > 112 µM (not active)

Question: Which AC50 (Cytochrome P450 2C9) does the source give for `Cc1ccc(CNC(=O)CCNS(=O)(=O)c2ccc3c(c2)c(=O)n(C)c(=O)n3C)cc1` here?
Answer: inconclusive

Question: With `O=C(COc1cccc2cccnc12)NNC(=O)Nc1ccccc1` as the compound, how does the IC50 [8] read?
Answer: < 0.4 µM (not active)

Question: For `O=C(NCCc1nnc2ccc(NCc3ccc(Cl)cc3)nn12)c1ccccc1`, which IC50 [8] is on record?
Answer: 6.17 µM (not active)

Question: For `Cc1ccc2c(c1)C(CCN)C(=O)N2Cc1ccccc1` (stereo not drawn), which EC50 [2] is on record?
Answer: > 112 µM (not active)

Question: And the EC50 [1]?
Answer: > 112 µM (not active)

Question: For `c1c2c(cc3sc(N4CCOCC4)nc13)OCCO2`, which EC50 [2] is on record?
Answer: 11.4 µM (active)

Question: And the EC50 [1]?
Answer: 3.56 µM (active)

Question: For `O=S(=O)(Cc1ccccc1)NCC1CCCN(Cc2ccc(F)c(F)c2)C1` (stereo not drawn), which EC50 [9] is on record?
Answer: > 60 µM (not active)

Question: And the IC50 [8]?
Answer: 17.6 µM (not active)

Question: What about the EC50 [10] of the same compound?
Answer: 0.199 µM (active)

Question: Which AC50 (Cytochrome P450 2C9) does the source give for `CNc1nc(C)cc(C)c1S(=O)(=O)c1ccc(C)cc1` here?
Answer: inconclusive

Question: For `COC(=O)CN1C(=O)[C@H]2[C@@H](c3ccc(C)o3)N3C(=O)CN(CC4CC4)C(=O)[C@@]3(Cc3ccccc3)[C@H]2C1=O`, which EC50 (cells [4]) is on record?
Answer: > 350 µM (not active)

Question: And the EC50 (cells [5])?
Answer: > 350 µM (not active)

Question: What does the source list for `COc1cccc(CN(C)CC(=O)Nc2cccc(C(F)(F)F)c2)c1OC`?
Answer: EC50 [11]: > 195 µM (not active); IC50 [8]: 3.87 µM (not active)

Question: What does the source list for `C=CCOC(=O)C(C#N)c1nc2ccccc2nc1N1CCN(Cc2ccc3c(c2)OCO3)CC1` (stereo not drawn)?
Answer: EC50 [9]: > 60 µM (not active); EC50 [2]: 69.2 µM (active); EC50 [1]: > 112 µM (not active); EC50 [10]: 1.18 µM (active)

Question: For `CC1=CC2=NC(=O)/C(=C\c3cccn3CCOc3cc(C)cc(C)c3)C(=N)N2O1`, which IC50 [8] is on record?
Answer: 0.668 µM (not active)

Question: Which IC50 [8] does the source give for `COc1ccc(C(=O)CSc2nc(C(C)(C)C)nc3ccccc23)cc1` here?
Answer: 12.6 µM (not active)

Question: Which results are given for `O=C(NNC(=O)C1CCN(S(=O)(=O)c2ccc(Cl)cc2)CC1)c1ccc(Cl)cc1`?
Answer: AC50 (Cytochrome P450 2C9): inconclusive; AC50 (Cytochrome P450 3A4): 3.55 µM (inconclusive)

Question: For `O=S(=O)(c1ccccc1)N1CCCCC1c1cccnc1` (stereo not drawn), which AC50 (Cytochrome P450 2C9) is on record?
Answer: inconclusive

Question: Which AC50 (Cytochrome P450 2C19) does the source give for `CCCN(CCC)CCCNS(=O)(=O)c1cc(Br)cc2c1N(C(C)=O)CC2` here?
Answer: 31.6 µM (inconclusive)

Question: And the AC50 (Cytochrome P450 2C9)?
Answer: inconclusive

Question: With `Cc1[nH]c2ccccc2c1/C=N/NC(=S)NCc1ccccc1` as the compound, how does the IC50 [8] read?
Answer: 15.1 µM (not active)

Question: For `O=C(O/N=C\c1ccc(N2CCCCC2)c([N+](=O)[O-])c1)c1c(F)cccc1F`, which AC50 (Cytochrome P450 2C19) is on record?
Answer: 11.2 µM (inconclusive)

Question: And the AC50 (Cytochrome P450 2C9)?
Answer: inconclusive

Question: What about the AC50 (Cytochrome P450 3A4) of the same compound?
Answer: 12.6 µM (inconclusive)

Question: Which EC50 [2] does the source give for `COc1cc(N/N=C/c2ccc(N(C)C)cc2)ncn1` here?
Answer: 2.9 µM (active)

Question: What about the EC50 [1] of the same compound?
Answer: 0.989 µM (active)

Question: For `CC(=O)Nc1ccc(S(=O)(=O)c2ccc(N)cc2)cc1` [MONO-N-ACETYL DAPSONE], which AC50 (Cytochrome P450 2C9) is on record?
Answer: inconclusive
